Values of other authors as cited in patent US10624840B2, “Method for performing cosmetic surgical procedures using tumescent anesthesia and oral sedation” (priority 2017, dated 2020).

System: patient
Details: oral

O=C1Nc2ccc(Cl)cc2C(c2ccccc2Cl)=NC1O (stereo not shown) [Lorazepam, lorazepam]
duration of lasting effects on a patient: 10 to 20 h
